Results: PMC6277767, “Broad and Region-Specific Impacts of the Synthetic Cannabinoid CP 55,940 in Adolescent and Adult Female Mouse Brains” (Frontiers in Molecular Neuroscience, 2018)

Tested on: CD1 female mouse brain lipidome
Experiment: Brain-region lipid levels (HPLC/MS/MS lipidomics) 2 h after single i.p. 3 mg/kg CP 55,940 vs vehicle
Type: in vivo
Conditions: thalamus
Method: The Bloomington Institutional Animal Care and Use Committee of Indiana University reviewed and approved the animal procedures. Female mice from the CD1 strain were utilized to match our study examining THC’s effects on the brain lipidome ([Leishman et al., 2018]). Mice were given a single i.p. injection of either 3 mg/kg CP or 1:1:18 cremophor:ethanol:saline vehicle (please refer to the section “3 mg/kg CP Is Relevant for Synthetic Cannabinoid Abuse and Has Stronger Effects on the Female Mouse Brain Lipidome During Adolescence” for a justification of dose and use of female mice). Three different age groups were given injections: PND 35 and PND 50 adolescents, and adult mice (PND 113). At least eight mice in each age group received CP and at least eight received vehicle. Matching the THC study time course ([Leishman et al., 2018]), mice were sacrificed via rapid decapitation 2 h after injection. Brains were immediately removed and flash-frozen in liquid nitrogen, and then stored at -80°C until dissections were performed. Brains were dissected on an ice-cold dissection plate into the following regions: STR, HIPP, CER, THAL, CTX, HYP, MID, and STEM. These abbreviations for these brain areas will be used exclusively when discussing the results generated by these specific dissections. Each dissected area was immediately placed in liquid nitrogen and then stored at -80°C until used for lipid extraction.
Tissue extracts were performed as previously described ([Bradshaw et al., 2006]; [Stuart et al., 2013]; [Raboune et al., 2014]; [Leishman et al., 2016a],[b], [2017], [2018]). First, samples were shock frozen in liquid nitrogen, weighed, and transferred to a centrifuge tube. The mass of the largest sample was multiplied by 50 to determine how many milliliters of HPLC-grade methanol (Fisher, Fair Lawn, NJ, United States) to add. Then, samples were spiked with 500 pmol deuterium-labeled NAGly (d8NAGly; Cayman Chemical, Ann Arbor, MI, United States). Samples were placed on ice in darkness for 2 h then individually homogenized and centrifuged at 19,000 × g for 20 min at 20°C. Supernatants were diluted with HPLC water (purified in house) to make a solution of 75% water, 25% supernatant. Lipids were partially purified on C18 solid phase extraction columns (Agilent, Palo Alto, CA, United States). A series of four elutions with 1.5 mL of 60%, 75%, 85%, and 100% methanol were collected ([Stuart et al., 2013]; [Leishman et al., 2016a],[b], [2018]).
As previously described ([Bradshaw et al., 2006]; [Tan et al., 2006]; [Smoum et al., 2010]; [Stuart et al., 2013]; [Tortoriello et al., 2013]; [Raboune et al., 2014]; [Leishman et al., 2016a],[b], [2017], [2018]), samples were analyzed using an Applied Biosystems API 3000 triple quadrupole mass spectrometer with electrospray ionization (Foster City, CA, United States). Using an Agilent XDB-C18 reversed phase analytical column and optimized mobile phase gradients, 20 μL from each elution were chromatographed. Two Shimadzu 10ADvp pumps (Columbia, MD, United States) provided the pressure for gradient elution. Mobile phase A: 20% methanol, 80% water (v/v) and 1 mM ammonium acetate (Sigma, St. Louis, MO, United States). Mobile phase B: 100% methanol, 1 mM ammonium acetate. Every method run began with 0% mobile phase B, reached 100% mobile phase B flowing at 0.2 mL/min, and gradually returned to 0% mobile phase B.
This screening library will be referred to as the lipidome when discussing data from this study. HPLC/MS/MS data were analyzed using Analyst software (Applied Biosystems) ([Bradshaw et al., 2006]; [Tan et al., 2006]; [Stuart et al., 2013]; [Tortoriello et al., 2013]; [Raboune et al., 2014]; [Leishman et al., 2016a],[b], [2017], [2018]). Chromatograms (Supplementary Figure 3) were generated by determining the retention time of analytes from the analytical column with a [M-1] or [M+1] parent peak and a fragmentation peak corresponding to the programmed values. […]

[1] = WT adult female mice, 3mg/kg CP 55,940

SMILES: CCCCCCC(C)(C)c1ccc([C@@H]2C[C@H](O)CC[C@H]2CCCO)c(O)c1 [CP 55,940]
- N-docosahexaenoyl ethanolamine level, Mean [1]: 2.99E-11
- N-docosahexaenoyl glycine level, Mean [1]: 1.3E-13
- N-docosahexaenoyl phenylalanine level, Mean [1]: 4.66E-14
- N-linoleoyl GABA level, Mean [1]: 7.91E-12
- N-linoleoyl alanine level, Mean [1]: 5.44E-13
- N-linoleoyl ethanolamine level, Mean [1]: 1.72E-11
- N-linoleoyl glycine level, Mean [1]: 9.08E-14
- N-linoleoyl serine level, Mean [1]: 4.53E-11
- N-oleoyl GABA level, Mean [1]: 1.73E-11
- N-oleoyl alanine level, Mean [1]: 2.34E-12
- N-oleoyl ethanolamine level, Mean [1]: 1.6E-10
- N-oleoyl glycine level, Mean [1]: 4.19E-13
- N-oleoyl leucine level, Mean [1]: 7.81E-13
- N-oleoyl methionine level, Mean [1]: 5.74E-13
- N-oleoyl phenylalanine level, Mean [1]: 4.73E-13
- N-oleoyl serine level, Mean [1]: 2E-10
- N-palmitoyl GABA level, Mean [1]: 2.74E-11
- N-palmitoyl alanine level, Mean [1]: 2.22E-12
- N-palmitoyl ethanolamine level, Mean [1]: 6.49E-11
- N-palmitoyl glycine level, Mean [1]: 2.5E-12
- N-palmitoyl leucine level, Mean [1]: 2.46E-12
- N-palmitoyl methionine level, Mean [1]: 3.82E-12
- N-palmitoyl phenylalanine level, Mean [1]: 4.13E-13
- N-palmitoyl serine level, Mean [1]: 1.13E-11
- N-palmitoyl tyrosine level, Mean [1]: 3.42E-13
- N-palmitoyl valine level, Mean [1]: 1.9E-13
- N-stearoyl GABA level, Mean [1]: 1.7E-11
- N-stearoyl alanine level, Mean [1]: 2.97E-12
- N-stearoyl ethanolamine level, Mean [1]: 1.06E-11
- N-stearoyl glycine level, Mean [1]: 1.83E-12
- N-stearoyl leucine level, Mean [1]: 1.05E-12
- N-stearoyl methionine level, Mean [1]: 4.98E-13
- N-stearoyl phenylalanine level, Mean [1]: 2.37E-13
- N-stearoyl serine level, Mean [1]: 2.33E-11
- N-stearoyl tyrosine level, Mean [1]: 8.82E-14
- Oleic acid level, Mean [1]: 4.55E-10
- PGE2 level, Mean [1]: 1.93E-10
- PhosphoLEA level, Mean [1]: 3.87E-12
- 2-arachidonoyl glycerol: Direction (relative to Veh) (adult, 3 mg/kg CP 55,940): ↓
- 2-arachidonoyl glycerol: Magnitude (x Veh level) (adult, 3 mg/kg CP 55,940): 0.81 x Veh level
- 2-linoleoyl glycerol: Direction (relative to Veh) (adult, 3 mg/kg CP 55,940): ↓
- 2-linoleoyl glycerol: Magnitude (x Veh level) (adult, 3 mg/kg CP 55,940): 0.77 x Veh level
- 6-ketoPGF1α: Direction (relative to Veh) (adult, 3 mg/kg CP 55,940): ↑
- 6-ketoPGF1α: Magnitude (x Veh level) (adult, 3 mg/kg CP 55,940): 1.23 x Veh level
- Arachidonic acid: Direction (relative to Veh) (adult, 3 mg/kg CP 55,940): ↓
- Arachidonic acid: Magnitude (x Veh level) (adult, 3 mg/kg CP 55,940): 0.83 x Veh level
- N-arachidonoyl GABA: Direction (relative to Veh) (adult, 3 mg/kg CP 55,940): ↓
- N-arachidonoyl GABA: Magnitude (x Veh level) (adult, 3 mg/kg CP 55,940): 0.80 x Veh level
- N-arachidonoyl alanine: Direction (relative to Veh) (adult, 3 mg/kg CP 55,940): ↓
- N-arachidonoyl alanine: Magnitude (x Veh level) (adult, 3 mg/kg CP 55,940): 0.63 x Veh level
- N-arachidonoyl ethanolamine: Direction (relative to Veh) (adult, 3 mg/kg CP 55,940): ↓
- N-arachidonoyl ethanolamine: Magnitude (x Veh level) (adult, 3 mg/kg CP 55,940): 0.81 x Veh level
- N-arachidonoyl glycine: Direction (relative to Veh) (adult, 3 mg/kg CP 55,940): ↓
- N-arachidonoyl glycine: Magnitude (x Veh level) (adult, 3 mg/kg CP 55,940): 0.63 x Veh level
- N-oleoyl ethanolamine: Direction (relative to Veh) (adult, 3 mg/kg CP 55,940): ↓
- N-oleoyl ethanolamine: Magnitude (x Veh level) (adult, 3 mg/kg CP 55,940): 0.79 x Veh level
- N-palmitoyl GABA: Direction (relative to Veh) (adult, 3 mg/kg CP 55,940): ↑
- N-palmitoyl GABA: Magnitude (x Veh level) (adult, 3 mg/kg CP 55,940): 1.13 x Veh level
- N-palmitoyl ethanolamine: Direction (relative to Veh) (adult, 3 mg/kg CP 55,940): ↓
- N-palmitoyl ethanolamine: Magnitude (x Veh level) (adult, 3 mg/kg CP 55,940): 0.86 x Veh level
- N-palmitoyl leucine: Direction (relative to Veh) (adult, 3 mg/kg CP 55,940): ↑
- N-palmitoyl leucine: Magnitude (x Veh level) (adult, 3 mg/kg CP 55,940): 1.36 x Veh level
- N-palmitoyl methionine: Direction (relative to Veh) (adult, 3 mg/kg CP 55,940): ↑
- N-palmitoyl methionine: Magnitude (x Veh level) (adult, 3 mg/kg CP 55,940): 1.25 x Veh level
- N-palmitoyl valine: Direction (relative to Veh) (adult, 3 mg/kg CP 55,940): ↑
- N-palmitoyl valine: Magnitude (x Veh level) (adult, 3 mg/kg CP 55,940): 1.95 x Veh level
- Oleic acid: Direction (relative to Veh) (adult, 3 mg/kg CP 55,940): ↓
- Oleic acid: Magnitude (x Veh level) (adult, 3 mg/kg CP 55,940): 0.78 x Veh level
- 2-linoleoyl glycerol Direction (relative to Veh) (PND 35, 3 mg/kg CP 55,940): ↓
- 2-linoleoyl glycerol Magnitude (x Veh level) (PND 35, 3 mg/kg CP 55,940): 0.79 x Veh level
- 6-ketoPGF1α Direction (relative to Veh) (PND 35, 3 mg/kg CP 55,940): ↓
- 6-ketoPGF1α Magnitude (x Veh level) (PND 35, 3 mg/kg CP 55,940): 0.77 x Veh level
- N-arachidonoyl GABA Direction (relative to Veh) (PND 35, 3 mg/kg CP 55,940): ↓
- N-arachidonoyl GABA Magnitude (x Veh level) (PND 35, 3 mg/kg CP 55,940): 0.72 x Veh level
- N-arachidonoyl alanine Magnitude (x Veh level) (PND 35, 3 mg/kg CP 55,940): 0.82 x Veh level
- N-arachidonoyl alanine, Direction (relative to Veh) (PND 35, 3 mg/kg CP 55,940): ↓
- N-arachidonoyl ethanolamine, Direction (relative to Veh) (PND 35, 3 mg/kg CP 55,940): ↑
- N-arachidonoyl ethanolamine, Magnitude (x Veh level) (PND 35, 3 mg/kg CP 55,940): 1.21 x Veh level
- N-arachidonoyl glycine Direction (relative to Veh) (PND 35, 3 mg/kg CP 55,940): ↓
- N-arachidonoyl glycine Magnitude (x Veh level) (PND 35, 3 mg/kg CP 55,940): 0.86 x Veh level
- N-arachidonoyl phenylalanine, Direction (relative to Veh) (PND 35, 3 mg/kg CP 55,940): ↑
- N-arachidonoyl phenylalanine, Magnitude (x Veh level) (PND 35, 3 mg/kg CP 55,940): 1.20 x Veh level
- N-arachidonoyl serine Direction (relative to Veh) (PND 35, 3 mg/kg CP 55,940): ↓
- N-arachidonoyl serine Magnitude (x Veh level) (PND 35, 3 mg/kg CP 55,940): 0.81 x Veh level
- N-arachidonoyl taurine Direction (relative to Veh) (PND 35, 3 mg/kg CP 55,940): ↓
- N-arachidonoyl taurine Magnitude (x Veh level) (PND 35, 3 mg/kg CP 55,940): 0.87 x Veh level
- N-docosahexaenoyl GABA Direction (relative to Veh) (PND 35, 3 mg/kg CP 55,940): ↓
- N-docosahexaenoyl GABA Magnitude (x Veh level) (PND 35, 3 mg/kg CP 55,940): 0.71 x Veh level
- N-docosahexaenoyl alanine Direction (relative to Veh) (PND 35, 3 mg/kg CP 55,940): ↓
- N-docosahexaenoyl alanine Magnitude (x Veh level) (PND 35, 3 mg/kg CP 55,940): 0.69 x Veh level
- N-docosahexaenoyl glycine Direction (relative to Veh) (PND 35, 3 mg/kg CP 55,940): ↓
- N-docosahexaenoyl glycine Magnitude (x Veh level) (PND 35, 3 mg/kg CP 55,940): 0.85 x Veh level
- N-docosahexaenoyl leucine Direction (relative to Veh) (PND 35, 3 mg/kg CP 55,940): ↑
- N-docosahexaenoyl leucine Magnitude (x Veh level) (PND 35, 3 mg/kg CP 55,940): 1.78 x Veh level
- N-docosahexaenoyl phenylalanine Direction (relative to Veh) (PND 35, 3 mg/kg CP 55,940): ↑
- N-docosahexaenoyl phenylalanine Magnitude (x Veh level) (PND 35, 3 mg/kg CP 55,940): 1.25 x Veh level
- N-linoleoyl ethanolamine, Direction (relative to Veh) (PND 35, 3 mg/kg CP 55,940): ↑
- N-linoleoyl ethanolamine, Magnitude (x Veh level) (PND 35, 3 mg/kg CP 55,940): 1.29 x Veh level
- N-oleoyl GABA Magnitude (x Veh level) (PND 35, 3 mg/kg CP 55,940): 0.81 x Veh level
- N-oleoyl GABA direction (relative to Veh) (PND 35, 3 mg/kg CP 55,940): ↓
- N-oleoyl alanine Magnitude (x Veh level) (PND 35, 3 mg/kg CP 55,940): 0.84 x Veh level
- N-oleoyl alanine direction (relative to Veh) (PND 35, 3 mg/kg CP 55,940): ↓
